Tested on: PBMC's from normal volunteers
Assay: mRNA for IL-4, INF-gamma, TNF-alpha and CD69 in PBMCs from normal volunteers
Type: cell-based

ionomycine
CD69 mRNA, relative fold difference versus untreated control: 1.639 fold | IFN-γ mRNA, relative fold difference versus untreated control: 1.608 fold | IL-4 mRNA, relative fold difference versus untreated control: 0.716 fold | TNF-α mRNA, relative fold difference versus untreated control: 0.657 fold

— patent publication US9517224B2, “Methods of treating patients infected with HIV and HTLV” (THE UNITED STATES OF AMERICA, AS REPRESENTED BY THE …, priority 2012, dated 2016)
